In paper PMC10616201, “Antioxidant and α-glucosidase inhibitory activities of compound isolated from Stachytarpheta jamaicensis (L) Vahl. leaves” (Scientific Reports, 2023):

Biological target: T1, α-glucosidase (EC 3.2.1.20; rat intestinal acetone powder)
T1 construct: gene Si; crude supernatant of rat intestinal acetone powder (Sigma 1639) in normal saline; native, unpurified; maltase activity read as glucose release
Experiment: glucose release from maltose, glucose kit, absorbance […] nm
Assay type: biochemical
Details: 10 mM maltose, 0.1 M buffer pH 6.9, 10 min, crude rat intestinal supernatant

Compound: COC(=O)C1=CO[C@@H](O[C@@H]2O[C@H](CO)[C@@H](O)[C@H](O)[C@H]2O)[C@H]2[C@]1(O)[C@H](O)C[C@]2(C)O [compound 1, 6β-hydroxyipolamiide]
- α-Glucosidase inhibition / IC50: 537.79 ± 45.04 µg/mL
